Measured values from patent US9416129B2, “Tricyclic substituted thiadiazine dioxide compounds as BACE inhibitors, compositions and their use” (Merck Sharp & Dohme Corp., priority 2012, dated 2016).

How the values were obtained:
human autoBACE-2 = human autoBACE-2 (Homo sapiens (Human), UniProt Q9Y5Z0); assay: BACE-2 assay (BACE-HTRF, time-resolved endpoint proteolysis); assay type: biochemical; conditions: Ki calculated from IC50 using the Cheng-Prusoff equation; read-out: BACE2 Ki
Procedure: Inhibitor IC50s at purified human autoBACE-2 are determined in a time-resolved endpoint proteolysis assay that measures hydrolysis of the QSY7-[…]-Eu-amide FRET peptide substrate (BACE-HTRF assay). […] DMSO is present at 5% final concentration in the assay. Following laser excitation of sample wells at 320 nm, the fluorescence signal at 620 nm is collected for 400 ms following a 50 μs delay on a RUBYstar HTRF plate reader (BMG Labtechnologies). Raw RFU data is normalized to maximum (1.0 nM BACE/DMSO) and minimum (no enzyme/DMSO) RFU values. […] The Ki values are calculated from the IC50 using the Cheng-Prusoff equation.

[1] = target: soluble human BACE1 catalytic domain (Homo sapiens (Human), UniProt P56817); assay: BACE1 HTRF FRET assay; assay type: biochemical; conditions: Ki calculated from IC50 using the Cheng-Prusoff equation
soluble human BACE1 catalytic domain, sequence (P56817 75-416): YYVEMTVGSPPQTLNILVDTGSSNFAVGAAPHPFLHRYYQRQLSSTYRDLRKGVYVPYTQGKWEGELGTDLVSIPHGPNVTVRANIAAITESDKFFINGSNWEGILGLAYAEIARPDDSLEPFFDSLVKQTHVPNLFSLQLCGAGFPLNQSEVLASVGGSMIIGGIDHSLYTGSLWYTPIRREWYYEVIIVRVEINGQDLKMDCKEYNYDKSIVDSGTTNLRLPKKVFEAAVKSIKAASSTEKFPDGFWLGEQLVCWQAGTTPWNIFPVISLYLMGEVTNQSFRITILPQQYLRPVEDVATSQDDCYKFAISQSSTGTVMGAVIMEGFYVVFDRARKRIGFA
Excerpt: Na^+-Acetate pH 5.0; 1% Brij-35; Glycerol; Dimethyl Sulfoxide (DMSO); Recombinant human soluble BACE1 catalytic domain (>95% pure); APP Swedish mutant peptide substrate (QSY7-APP^swe-Eu): QSY7-[…]-Europium-amide.
A homogeneous time-resolved FRET assay can be used to determine IC50 values for inhibitors of the soluble human BACE1 catalytic domain. This assay monitors the increase of 620 nm fluorescence that resulted from BACE1 cleavage of an APPswedish APP^swe mutant peptide FRET substrate (QSY7-[…]-Europium-amide). This substrate contains an N-terminal QSY7 moiety that serves as a quencher of the C-terminal Europium fluorophore (620 nm Em). In the absence of enzyme activity, 620 nm fluorescence is low in the assay and increased linearly over 3 hours in the presence of uninhibited BACE1 enzyme Inhibition of BACE1 cleavage of the QSY7-APP^swe-Eu substrate by inhibitors is manifested as a suppression of 620 nm fluorescence.
Varying concentrations of inhibitors at 3× the final desired concentration in a volume of 10 ul are preincubated with purified human BACE1 catalytic domain (3 nM in 10 μl) for 30 minutes at 30° C. in reaction buffer containing 20 mM Na-Acetate pH 5.0, 10% glycerol, 0.1% Brij-35 and 7.5% DSMO. Reactions are initiated by addition of 10 μl of 600 nM QSY7-APP^swe-Eu substrate (200 nM final) to give a final reaction volume of […] in a 384 well Nunc HTRF plate. The reactions are incubated at 30° C. for 1.5 hours. The 620 nm fluorescence is then read on a Rubystar HTRF plate reader (BMG Labtechnologies) using a 50 millisecond delay followed by a 400 millisecond acquisition time window. Inhibitor IC50 values are derived from non-linear regression analysis of concentration response curves.

human P-glycoprotein = human P-glycoprotein (Homo sapiens (Human), UniProt P08183); assay: Pgp Mdr1 efflux ratio; assay type: in vitro ADME; conditions: efflux ratio, human P-glycoprotein
human P-glycoprotein, sequence (P08183 whole entry): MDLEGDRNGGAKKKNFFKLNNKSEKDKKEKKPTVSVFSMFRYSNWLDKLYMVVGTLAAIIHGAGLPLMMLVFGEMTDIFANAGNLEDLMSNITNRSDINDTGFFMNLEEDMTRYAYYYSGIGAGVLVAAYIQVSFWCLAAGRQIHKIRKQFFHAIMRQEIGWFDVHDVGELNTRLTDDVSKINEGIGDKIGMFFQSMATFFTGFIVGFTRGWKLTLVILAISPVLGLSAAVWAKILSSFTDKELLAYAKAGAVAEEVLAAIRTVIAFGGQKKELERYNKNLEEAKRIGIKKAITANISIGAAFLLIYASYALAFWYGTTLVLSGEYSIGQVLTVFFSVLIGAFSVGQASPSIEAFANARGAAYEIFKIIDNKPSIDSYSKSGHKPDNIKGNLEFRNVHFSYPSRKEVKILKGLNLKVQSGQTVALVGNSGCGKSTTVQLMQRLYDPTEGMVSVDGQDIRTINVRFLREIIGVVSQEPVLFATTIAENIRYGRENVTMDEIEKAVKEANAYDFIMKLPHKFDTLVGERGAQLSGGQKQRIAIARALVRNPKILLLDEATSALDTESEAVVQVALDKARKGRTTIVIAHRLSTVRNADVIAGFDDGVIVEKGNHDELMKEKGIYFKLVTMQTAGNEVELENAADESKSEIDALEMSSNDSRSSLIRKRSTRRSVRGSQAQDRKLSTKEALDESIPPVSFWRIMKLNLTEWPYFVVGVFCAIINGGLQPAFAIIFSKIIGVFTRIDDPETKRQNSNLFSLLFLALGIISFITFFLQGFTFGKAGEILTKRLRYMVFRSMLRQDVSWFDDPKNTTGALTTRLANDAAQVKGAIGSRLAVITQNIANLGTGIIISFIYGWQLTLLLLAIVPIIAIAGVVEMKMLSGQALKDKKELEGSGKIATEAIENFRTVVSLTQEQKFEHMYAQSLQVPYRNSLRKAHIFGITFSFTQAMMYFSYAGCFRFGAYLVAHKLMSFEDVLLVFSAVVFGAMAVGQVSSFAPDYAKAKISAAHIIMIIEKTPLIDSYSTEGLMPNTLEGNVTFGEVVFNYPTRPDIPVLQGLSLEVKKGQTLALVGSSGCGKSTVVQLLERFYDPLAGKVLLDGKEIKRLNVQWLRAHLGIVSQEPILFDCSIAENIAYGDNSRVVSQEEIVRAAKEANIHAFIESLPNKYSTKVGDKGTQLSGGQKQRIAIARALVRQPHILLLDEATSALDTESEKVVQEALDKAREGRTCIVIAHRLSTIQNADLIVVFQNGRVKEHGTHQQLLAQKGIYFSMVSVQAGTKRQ

human autoBACE-2, sequence (Q9Y5Z0 63-473 limits assumed): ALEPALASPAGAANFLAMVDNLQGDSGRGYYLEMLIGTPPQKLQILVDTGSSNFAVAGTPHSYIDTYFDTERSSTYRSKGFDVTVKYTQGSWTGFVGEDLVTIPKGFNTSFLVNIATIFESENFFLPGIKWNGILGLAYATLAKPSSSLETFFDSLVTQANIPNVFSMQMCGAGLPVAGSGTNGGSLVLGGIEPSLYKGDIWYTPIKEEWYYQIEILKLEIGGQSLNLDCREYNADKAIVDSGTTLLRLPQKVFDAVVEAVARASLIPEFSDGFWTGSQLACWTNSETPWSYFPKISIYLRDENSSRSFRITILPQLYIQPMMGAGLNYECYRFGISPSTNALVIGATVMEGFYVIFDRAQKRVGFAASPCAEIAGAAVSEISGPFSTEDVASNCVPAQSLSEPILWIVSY

Structure (SMILES) | Ki (human autoBACE-2) [nM] | Ki [1] [nM] | Pgp Mdr1 ER (human P-glycoprotein)
CN1C(=N)N[C@](C)(c2sc(-c3cccc(-c4ncco4)c3)cc2Cl)CS1(=O)=O [Example 6] | 1.4 | 4.7 | 0.49
CN1C(=N)N[C@](C)(c2sc(-c3ccc(-n4ccnn4)cc3)cc2Cl)CS1(=O)=O [Example 71] | 654 | 1600 | 
Cc1cn(-c2cc(-c3cc(F)c([C@]4(C)CS(=O)(=O)N(C)C(=N)N4)s3)ccn2)cn1 [Example 72] | 26 | 67.2 | 
CN1C(=N)N[C@](C)(c2sc(-c3ccnc(-c4ccncc4)c3)cc2F)CS1(=O)=O [Example 73] | 123 | 338 | 
CN1C(=N)N[C@](C)(c2sc(-c3ccnc(-c4cccnc4)c3)cc2F)CS1(=O)=O [Example 74] | 122 | 199 | 
Cc1cnn(-c2cc(-c3cc(F)c([C@]4(C)CS(=O)(=O)N(C)C(=N)N4)s3)ccn2)c1 [Example 75] | 2530 | 2780 | 
CN1C(=N)N[C@](C)(c2sc(-c3ccnc(-n4ccnc4)c3)cc2F)CS1(=O)=O [Example 76] | 52 | 112 | 
CN1C(=N)N[C@](C)(c2sc(-c3ccnc(-n4cccn4)c3)cc2F)CS1(=O)=O [Example 77] | 69 | 162 | 
CN1C(=N)N[C@](C)(c2sc3c(-c4ccc(C5CC(=O)N5)cc4)cccc3c2F)CS1(=O)=O (some centres unmarked) [Example 81] | 1720 | 184 | 
CN1C(=N)N[C@](C)(c2sc3c(-c4ccc(-c5ccc(F)cc5F)nc4)cccc3c2F)CS1(=O)=O [Example 82] | 61 | 93 | 
CN1C(=N)N[C@](C)(c2sc3c(-c4ccc(-n5ccnn5)cc4)cccc3c2F)CS1(=O)=O [Example 83] | 148 | 19 | 
CN1C(=N)N[C@](C)(c2sc3c(-c4ccc(-c5ccncc5)cc4)cccc3c2F)CS1(=O)=O [Example 84] | 764 | 351 | 
CN1C(=N)N[C@](C)(c2sc3c(-c4ccc(N5CCS(=O)(=O)CC5)cc4)cccc3c2F)CS1(=O)=O [Example 85] | 4690 | 6520 | 
CN1C(=N)N[C@](C)(c2sc3c(-c4ccc(-c5nccn5C)cc4)cccc3c2F)CS1(=O)=O [Example 86] | 3300 | 5620 | 
CN1C(=N)N[C@](C)(c2sc3c(-c4ccc(-n5cccn5)nc4)cccc3c2F)CS1(=O)=O [Example 87] | 31 | 10 | 
Cc1cnc(-c2ccc(-c3cccc4c(F)c([C@]5(C)CS(=O)(=O)N(C)C(=N)N5)sc34)cc2)nc1 [Example 88] | 3840 | 9140 | 
CN1C(=N)N[C@](C)(c2sc3c(-c4ccc(-n5cccn5)cc4)cccc3c2F)CS1(=O)=O [Example 89] | 68 | 37 | 
CN1C(=N)N[C@](C)(c2sc3c(-c4ccc(-c5ncco5)cc4)cccc3c2F)CS1(=O)=O [Example 90] | 214 | 104 | 
CN1C(=N)N[C@](C)(c2sc3c(-c4ccc(-c5nccs5)cc4)cccc3c2F)CS1(=O)=O [Example 91] | 1350 | 797 | 
CN1C(=N)N[C@](C)(c2sc3c(-c4ccc(-n5nccn5)cc4)cccc3c2F)CS1(=O)=O [Example 92] | 1660 | 1660 | 
CN1CCN(c2ccc(-c3cccc4c(F)c([C@]5(C)CS(=O)(=O)N(C)C(=N)N5)sc34)cn2)CC1 [Example 93] | 2660 | 3840 | 
CN1C(=N)N[C@](C)(c2sc3c(-c4ccc(N5CCOCC5)nc4)cccc3c2F)CS1(=O)=O [Example 94] | 9520 | 1500 | 
CN1CCN(c2ccc(-c3cccc4c(F)c([C@]5(C)CS(=O)(=O)N(C)C(=N)N5)sc34)cc2)CC1 [Example 95] | 2030 | 9760 | 

Further lines, results first:

Ki (human autoBACE-2) [nM] | Ki [1] [nM] | Pgp Mdr1 ER (human P-glycoprotein) | Structure (SMILES)
23 | 162 |  | CN1C(=N)N[C@](C)(c2sc3c(-c4cnc(C5CC5)nc4)nccc3c2Cl)CS1(=O)=O [Example 78]
22 | 282 |  | CN1C(=N)N[C@](C)(c2sc3c(-c4ccc(C5CC5)nc4)nccc3c2Cl)CS1(=O)=O [Example 79]
9520 | 327 |  | CN1C(=N)N[C@](C)(c2sc3c(-c4ccc(C5CC5)nc4)cccc3c2F)CS1(=O)=O [Example 96]
64 | 61.2 |  | CN1C(=N)N[C@](C)(c2sc3c(-c4cnc(-n5cccn5)nc4)nccc3c2Cl)CS1(=O)=O [Example 97]
6.7 | 425 |  | CN1C(=N)N[C@](C)(c2sc3c(-c4ccc(-c5cc(C(F)(F)F)n[nH]5)cc4)nccc3c2Cl)CS1(=O)=O [Example 98]
855 | 224 |  | CN1C(=N)N[C@](C)(c2sc3c(-c4ccc(-n5nccn5)cc4)nccc3c2Cl)CS1(=O)=O [Example 99]
224 | 116 |  | CN1C(=N)N[C@](C)(c2sc3c(-c4ccc(-c5ncco5)cc4)nccc3c2Cl)CS1(=O)=O [Example 100]
116 | 959 |  | CN1C(=N)N[C@](C)(c2sc3c(-c4ccc(C5CC(=O)N5)cc4)nccc3c2Cl)CS1(=O)=O (some centres unmarked) [Example 101]
959 | 29.9 |  | CN1C(=N)N[C@](C)(c2sc3c(-c4ccc(-n5cccn5)cc4)nccc3c2Cl)CS1(=O)=O [Example 102]
36 | 86.1 |  | CN1C(=N)N[C@](C)(c2sc3c(-c4ccc(-n5ccnn5)cc4)nccc3c2Cl)CS1(=O)=O [Example 104]
86 | 1640 |  | CN1C(=N)N[C@](C)(c2sc3c(-c4ccc(-c5nccn5C)cc4)nccc3c2Cl)CS1(=O)=O [Example 105]
1640 | 270 |  | CN1C(=N)N[C@](C)(c2sc3c(-c4ccc(-c5nccs5)cc4)nccc3c2Cl)CS1(=O)=O [Example 106]
270 | 19.7 |  | CN1C(=N)N[C@](C)(c2sc3c(-c4ccc(-c5ccoc5)cc4F)nccc3c2Cl)CS1(=O)=O [Example 107]
19 | 35.2 |  | CN1C(=N)N[C@](C)(c2sc3c(-c4ccc(-c5cnco5)cc4F)nccc3c2Cl)CS1(=O)=O [Example 108]
87 | 525 |  | Cc1occc1-c1ccc(-c2nccc3c(Cl)c([C@]4(C)CS(=O)(=O)N(C)C(=N)N4)sc23)c(F)c1 [Example 109]
444 | 112 |  | Cc1cocc1-c1ccc(-c2nccc3c(Cl)c([C@]4(C)CS(=O)(=O)N(C)C(=N)N4)sc23)c(F)c1 [Example 110]
27 | 197 |  | CN1C(=N)N[C@](C)(c2sc3c(-c4ccc(-c5ccnn5C)cc4F)nccc3c2Cl)CS1(=O)=O [Example 111]
218 | 291 |  | CN1C(=N)N[C@](C)(c2sc3c(-c4ccc(-c5cnn(C)c5)cc4F)nccc3c2Cl)CS1(=O)=O [Example 112]
252 | 105 |  | CN1C(=N)N[C@](C)(c2sc3c(-c4ccc(-c5cncs5)cc4F)nccc3c2Cl)CS1(=O)=O [Example 113]
134 | 330 |  | CN1C(=N)N[C@](C)(c2sc3c(-c4ccc(-c5cn[nH]c5)cc4F)nccc3c2Cl)CS1(=O)=O [Example 114]
267 | 17.7 |  | COc1cnn(-c2ccc(-c3nccc4c(Cl)c([C@]5(C)CS(=O)(=O)N(C)C(=N)N5)sc34)c(F)c2)c1 [Example 115]
110 | 31.4 |  | CN1C(=N)N[C@](C)(c2sc3c(-c4ccc(-n5cccn5)cc4F)nccc3c2Cl)CS1(=O)=O [Example 116]
35 | 259 |  | CCCc1cnn(-c2ccc(-c3nccc4c(Cl)c([C@]5(C)CS(=O)(=O)N(C)C(=N)N5)sc34)c(F)c2)c1 [Example 117]
702 | 229 |  | CCc1cnn(-c2ccc(-c3nccc4c(Cl)c([C@]5(C)CS(=O)(=O)N(C)C(=N)N5)sc34)c(F)c2)c1 [Example 118]
417 | 189 |  | Cc1cnn(-c2ccc(-c3nccc4c(Cl)c([C@]5(C)CS(=O)(=O)N(C)C(=N)N5)sc34)c(F)c2)c1 [Example 119]
1260 | 1860 |  | COc1ccnc(N2CCN(c3nccc4c(Cl)c([C@]5(C)CS(=O)(=O)N(C)C(=N)N5)sc34)CC2)c1 [Example 121]
408 | 885 |  | Cc1nsc(C2CCN(c3nccc4c(Cl)c([C@]5(C)CS(=O)(=O)N(C)C(=N)N5)sc34)CC2)n1 [Example 122]
